Series [1] deals with Oryctolagus sp. The conditions noted are these: reproduction developmental.
For series [2], the system named is Folsomia candida. Conditions: chronic/long-term; reproduction.
Series [3] relates to Lepomis macrochirus. The conditions noted are these: acute; duration: 96 hours; mortality.
Series [4] has as its system Hypoaspis aculeifer. Conditions: chronic/long-term; reproduction.
The subject of series [5] is Colinus virginianus.
The subject of series [6] is Rattus norvegicus.
In series [7] the test system is Apis mellifera. The conditions noted are these: acute, mortality.
In series [8] the test system is Daphnia magna. Conditions: chronic/long-term; duration: 21 days; growth.
The test system of series [9] is Anas platyrhynchos. The conditions noted are these: acute; oral; unspecified; mortality.
Series [10] concerns Oncorhynchus mykiss. The conditions noted are these: acute; duration: 96 hours; mortality.
The test system of series [11] is Aphidius rhopalosiphi. Description: LR50; higher = less toxic. The conditions noted are these: not reported, mortality.

`COc1cc(OC)nc(NC(=O)NS(=O)(=O)c2cc(NC=O)ccc2C(=O)N(C)C)n1` [Foramsulfuron]: the NOAEL in series [1] (body weight) is 50 mg/kg-day; in [6] (reproduction developmental, duration: 2 years, reproduction) it was 25 mg/kg-day. Moreover, the NOEL is 500 mg/kg-day in series [1] (no effects); 104 mg/kg-day in series [5] (reproduction developmental); 1430 mg/kg-day in series [6] (reproduction developmental, F, reproduction). Also, the NOEC was found to be 100 mg/kg in [2], 1000 mg/kg in series [4] and 100 mg/L in series [8]. Besides, the LC50 in [3] and in [10] was greater than 100 µg/mL each time. In addition, the LD50 in [5] (acute, oral, mortality) is greater than 2000 mg/kg; in series [6] (acute, oral, mortality), greater than 5000 mg/kg; in series [7] (dermal) it was greater than 4.66 µg/piece; in series [7] (duration: 48 hours, oral, unspecified), greater than 5 µg/piece; in series [9], greater than 2000 mg/kg. The LR50 in series [11] (duration: 7 days) is greater than 60 g/ha; in series [11], greater than 5.6 g/ha.

The NOAEL is the highest tested level that showed no adverse finding. The term LC50 denotes the concentration lethal to half of the exposed cells or organisms.

Values taken from EPA's ToxValDB 9.5 (doi:10.2903/j.efsa.2016.4421).
